Laboratory results: article PMC4125160, “Neurotoxicity and Mode of Action of N, N-Diethyl-Meta-Toluamide (DEET)” (PLoS ONE, 2014)

Columns and labels:
[1] = test system: sodium channels in neonatal rat cortical neurons; assay: Patch clamp of rat cortical neurons, sodium currents; format: cell-based
Procedure: Rat cortical neurons (purchased from Lonza, Walkersville, MD, USA) were placed on poly-lysine coated glass cover slips in 35 mm dishes, and cultured in primary neuron basal medium with added 2% neural grown factor and 1% glutamine (from Lonza). The medium was half changed every 3 days, and the cells were used at 6–12 days. The neurons had dendrites and axons and the diameters of the somata were about 15–20 µm. Cells were cultured on cover slips and were immersed in 35 mm Petri dishes filled with room temperature extracellular saline. Patch pipettes were pulled from borosilicate glass capillaries with filament (BF150-86-10, Sutter Instrument, Novato CA, USA) on a P-1000 Flaming/Brown micropipette puller (Sutter Instrument). Extracellular solution was the same regardless of the target ion channel and contained: 140 mM NaCl, 5 mM KCl, 2 mM MgCl2, 2 mM CaCl2, 10 mM glucose, and 10 mM HEPES (pH = 7.4). Intracellular patch solution for potassium channel recordings consisted of: 140 mM KF, 10 mM NaCl, 2 mM MgCl2, and 10 mM HEPES (pH = 7.2). Intracellular patch solution for sodium channel recordings consisted of: 140 mM CsCH3SO3 10 mM NaCl, 2 mM MgCl2, 10 mM HEPES (pH = 7.2), where CsCH3SO3 was used to eliminate potassium currents during sodium channel analysis. The patch electrodes had resistances of 5–7 MOhms.
Patch clamp recordings were performed with a 40x/0.80W water immersion objective (working distance 3.5 mm) using a forced-air-cooled Photometrics Evolve 512/CCD97 camera system. Following gigaseal formation, the membrane was ruptured through a brief, manual suction of the electrode, or by a 2 msec long zap pulse. Currents were amplified with the use of a patch-clamp amplifier (Axopatch 200B, Molecular Devices LLC, Sunnyvale, CA, USA) and processed for analysis via A/D-converter (Digidata 1440A, Molecular Devices LLC). Recordings underwent series resistance compensation, low-pass filtering at 1 kHz, and were sampled at 10 kHz or 100 kHz for potassium and sodium currents, respectively. For recording and analyzing data, pClamp 10.0 software (Molecular Devices LLC) was used.

mosquitoes = assay: Toxicity to mosquitoes (abstract summary); format: in vivo
Procedure: (§1) Topical toxicity bioassays on adult female mosquitoes were performed based on the method of Pridgeon et al.. Briefly, insects were chilled on ice for 3 min, during which the appropriate volume (200 nL for mosquitoes, 1 µL for Musca) of chemical (dissolved in 95% ethanol) was applied onto the abdomen using a handheld Hamilton microapplicator. For each inhibitor, five doses were applied to groups of ten insects each and repeated three times. An ethanol-only treatment was included in each experiment as a negative control. Insects were transferred into a holding chamber post-treatment and supplied with free access to sugar water for the duration of the experiment. […] Three LD50 values were obtained and the mean LD50 value was calculated and used for statistical analysis.

[2] = test system: DmAChE, human AChE and butyrylcholinesterase; set-up: method as in PMID 19656357; details: cited from earlier work
acetylcholinesterase = assay: AChE inhibition, Ellman assay, summary statements across enzymes; format: biochemical; details: abstract
Text: In vitro biochemical assays utilized five acetylcholinesterase (AChE) enzymes. Recombinant human AChE (hAChE) was purchased from a commercial source (lyophilized powder, Sigma C1682, St. Louis, MO, USA). Homogenates to prepare Anopheles gambiae AChE (AgAChE) were obtained from the wild type G3 strain and the resistant AKRON strain (BEI Resources; http://www.beiresources.org/). AKRON mosquitoes (from Benin and donated by M. Akogbeto) have both knockdown resistance (kdr) to pyrethroids (L1014F sodium channel mutation) and the G119S AChE mutation (ace-1R), which confers resistance to carbamates, [15]. Both strains were cultured in the Emerging Pathogens Institute, University of Florida, Gainesville, FL, USA from eggs provided by the Center for Disease Control, Atlanta, GA, USA. Homogenates were also used to prepare Aedes aegypti AChE (AeAChE) from mosquitoes provided by the CMAVE, USDA-ARS, Gainesville, FL, USA; Musca domestica AChE (MdAChE) from flies cultured in the Department of Entomology and Nematology, Medical Entomology Laboratory, University of Florida, Gainesville, FL, USA); and Drosophila melanogaster AChE (DmAChE) from flies (Oregon-R strain) cultured in the Emerging Pathogens Institute, University of Florida, Gainesville, FL, USA. Homogenate enzymes were prepared from groups of ten non-blood fed adult female mosquitoes, five whole bodied Drosophila, or three Musca heads homogenized in 1 mL of ice-cold sodium phosphate buffer (0.1 M sodium phosphate, pH 7.8) with an electric motor driven glass tissue homogenizer. The homogenate was centrifuged at 5000×g using a Sorvall Fresco refrigerated centrifuge at 4 °C for 5 minutes. […]
Inhibition of AChE was determined using the Ellman assay and was based on the method outlined in Carlier et al.. […] Changes in absorbance were recorded by a DYNEX Triad spectrophotometer (DYNEX Technologies, Chantilly, VA, USA) at 405 nm. Enzyme concentrations used were within the linear range, therefore eliminating the need for protein quantification.

rats = test system: rats; set-up: method as in ref 24 = [24]; 24 Macko J , Weeks M ( 1980 ) Phase 6: Acute toxicity evaluation of N,N-diethyl-meta-toluamide (M-Det.) . U.S. Army Environmental Hygiene Agency Study No.71-51-0034-81.; details: oral administration to rats ref 24; cited from earlier work
M. domestica = assay: Topical toxicity bioassay; format: in vivo, Musca domestica
Procedure: as §1
(§2) For all toxicity assays, control mortality was corrected for using Abbots formula [19]; where corrected percent mortality = (% alive in control–% alive in treated) /% alive in control.

A. gambiae (G3) = assay: Topical toxicity bioassay on adult females; format: in vivo, Anopheles gambiae; details: topical application, ng of compound/mg of mosquito weight, 24 hr
Procedure: as §1, §2

A. gambiae (AKRON) = assay: Topical toxicity bioassay on adult females; format: in vivo, Anopheles gambiae
Procedure: as §1, §2

## CCN(CC)C(=O)c1cccc(C)c1 [DEET, N, N-diethyl-meta-toluamide]
[1]; 1 mM
  block of inward sodium currents in words: completely blocked
[1]; after 1 mM block
  sodium current amplitude restored by washout: approximately 50%
[1]; read-out: IC50 against sodium channels
  IC50: ~0.7 mM
mosquitoes
  LD50: ca. 1.5 µg/mg
[2]
  concentrations showing inhibitory effects: 0.1 to 10 mM
acetylcholinesterase; 10 mM
  acetylcholinesterase inhibition: < 10%
acetylcholinesterase; Drosophila melanogaster, Musca domestica, and human acetylcholinesterases
  IC50: 6 to 12 mM
rats
  LD50: ca. 3000 mg/kg
M. domestica; topical application, 24 hr
  LD50 (95% CI): 8104 (7026–9000)c ng/mg
M. domestica; toxicologically equivalent doses
  signs of intoxication: mostly lethargic with only occasional bouts of excitation
A. gambiae (G3)
  LD50 (95% CI): 1175 (988–1361)a ng/mg
A. gambiae (AKRON); topical application after 4 hr pretreatment with 200 ng PBO
  LD50 (+PBO) (95% CI): 1247 (872–1526)a ng/ml
A. gambiae (AKRON); topical application, ng of compound/mg of mosquito weight, 24 hr
  LD50 (95% CI): 1472 (1136–1806)b ng/mg
